Measurements reported in patent US6083941A, “Inhibition of NMDA receptor activity by pregnenolone sulfate derivatives” (Trustees of Boston University, priority 1998, dated 2000).
Where “and” joins values, the source holds several entries; their conditions need not be identical. Identical values can stand only once. Counter-ions that a name gives are not always drawn. Like-named read-outs stand apart in the source and are kept apart here.

Key:
Type in all cases: cell-based
[1] = system: NMDA receptor; experiment: Whole cell patch clamp, NMDA-induced current in cultured chick spinal cord neurons; details: for mean NMDA induced current: control cultures 121±16 pA
Method: Cultures of dissociated spinal cord neurons were prepared as previously described (Farb, D. H., et al., J. Cell Biol., 80:651-661 (1979)). Briefly, the dissociated cells from 7-day chick embryos were plated on collagen-coated 35-mm tissue culture dishes in Eagle's minimum essential medium supplemented with 2.4 mM glutamine, 10% (v/v) heat-inactivated horse serum, 5% (v/v) chick embryo extract and antibiotics. Cultures were maintained in a humidified atmosphere of 5% CO2, 95% air at 37°. Cytarabine (1 μM) was added to the culture medium after 36 hr. of the initial plating to inhibit the proliferation of non-neuronal cells. One day later, this medium was replaced with a similar medium supplemented with 20.5 mM glucose, 19 mM KCl, and 2.5% chick embryo extract. Fresh medium was added twice weekly. Cultured neurons were used in experiments within 2-4 weeks after plating.
Experiments were carried out in 35-mm tissue culture dishes on the stage of an inverted phase contrast microscope. Whole cell currents were recorded by the whole cell variant of the patch clamp technique (Hamill, O. P., et al., Pfagers Arch. 891:85-100 (1981)). Patch electrodes had tip openings of about […] and resistances of 3-8 M.OMEGA. using an intracellular solution comprised of the following (in mM): 140 CsCl, 11 EGTA, and 10 HEPES (pH adjusted to 7.2 with CsOH). In experiments in which a high concentration of glycine was used, the intracellular solution was replaced with a low chloride (10 mM) pipette solution. This solution contained the following (in mM): 140 potassium gluconate, 10 KCl, 8 sodium gluconate, 11 EGTA, and 10 HEPES (pH adjusted to 7.2 with KOH). To prevent a marked run-down of NMDA-induced current at high NMDA concentrations, 4 mM potassium ATP was included in the intracellular solution. The bath solution contained the following (in mM): 150 NaCl, 4 KCl, 1 CaCl2, and 10 HEPES (pH adjusted to 7.2 with NaOH). No glycine was added to the solutions containing NMDA, because no additional glycine was required to obtain a robust NMDA response, and there was no effect of a maximal concentration (10 μM) of glycine on 5β3αS inhibition of the NMDA response. All experiments were performed at room temperature (23-25° C.).
Recordings were made using an Axopatch 1B patch clamp apparatus (Axon Instruments, Burlingame, Calif.). Cells with series resistances greater than 10 M.OMEGA. were rejected. After partial compensation, series resistances were between 3.5 and 6 M.OMEGA.. The holding potential was maintained at -70 mV unless otherwise noted. Currents were filtered at 1 kHz using an eight-pole Bessel filter (-3 dB) and digitized ([…]) using an on-line data acquisition system (pClamp, Axon Instruments).
Drug solutions were applied to single neurons by pressure ejection (15 psi) from seven-barrel pipettes. Seven-barrel pressure pipettes were positioned approximately […] from the neuronal soma. Under these conditions, the drug solution in the pressure pipette rapidly and effectively replaces the solution surrounding the target neurons with less than 10% dilution (Choi, D. W., et al., Nature (Lond.) 269:342-344 (1977); Chan, C. Y., et al., Life Sci., 83:2061-2069 (1983); Chan, C. Y. and Farb, D. H., J. Neurosci., 5:2365-2373 (1985)). All drugs were obtained from Sigma, with the except of AMPA hydrobromide (Research Biochemicals) and steroids (Steraloids). Stock solutions of steroids were prepared in dimethyl sulfoxide, the final concentration of which was 0.5% (v/v). To obviate the possible effects of dimethyl sulfoxide on the relevant agonist-induced currents, all other drug solutions including NMDA, kainate, AMPA and external buffer (in the pressure pipette) also contained 0.5% dimethyl sulfoxide. […]

[2] = system: glutamate receptor-mediated spontaneous EPSCs in rat hippocampal neurons; experiment: Spontaneous excitatory postsynaptic currents (EPSCs), whole-cell recording in cultured hippocampal neurons
Method: Primary cultures of hippocampal neurons were prepared from embryonic day 18 rats. Cultured neurons were used in experiments 2-3 weeks after plating.
Spontaneous excitatory postsynaptic currents were recorded by the whole-cell variant of the patch clamp technique. The pipet solution usually contained (in mM) KCl 10, EGTA 11, sodium gluconate 3, potassium gluconate 140 and HEPES 10, adjusted to pH 7.2 with KOH. The bath solution contained (in mM) NaCl 150, KCl 4, CaCl2 1, and HEPES 10, adjusted to pH 7.2 with NaOH. Because NMDA-induced currents are subject to voltage-dependent block by extracellular Mg^2+, no magnesium salts were added to the bath solution. All records were made with the cell membrane potential clamped at -70 mV, which is very close to the Cl- equilibrium potential. Therefore, IPSCs are not expected to be observed and spontaneous activity should consist of EPSCs. The complete blockage of spontaneous activity by the co-application of the NMDA receptor antagonist APV and the non-NMDA receptor antagonist DNQX argues that the observed spontaneous activity is glutamate receptor-mediated.
Drug solutions were applied to single neurons by pressure ejection (15 psi) from 7-barrel pipets (tip opening ~3-5 μm) positioned ~50 μm from the neuronal soma. In all experiments, neurons received a 40s application of either steroid or steroid plus antagonist(s), followed by 10-20s pulse of external buffer solution.

[3] = system: NMDA-induced cell death in primary neuronal cultures of rat hippocampal formation; experiment: Trypan blue exclusion, NMDA-induced cell death (excitotoxicity) in primary hippocampal cultures; details: Rattus norvegicus, 200 μM 17β-estradiol hemisuccinate
From the text: Trypan blue exclusion was used to evaluate the ability of derivatives of pregnenolone sulfate to inhibit NMDA-induced cell death in primary neuronal cultures of rat hippocampal formation.
Mixed neuronal and glial cultures of hippocampal tissue were derived from fetal rats on day 18 of embryonic development and were maintained in culture for 16 to 24 days (Brewer, G. J., Brain Res., 494: 65-74 (1989)). Care for the animals used in this study was in accordance with institutional guidelines. Hippocampal tissue from Sprague-Dawley rat pups was collected immediately following removal from dams sacrificed with CO2 on embryonic day 18. Cells were dissociated by trituration in Ca^2 +/Mg^2 + free Hank's basic salt solution supplemented with 4.2 mM bicarbonate, 1 mM sodium pyruvate, 20 mM HEPES, 3 mg/ml BSA, and pelleted by centrifugation (900 rpm, 3 min). The resulting pellet was suspended in DMEM supplemented with 2.4 mg/ml BSA, 26.5 mM sodium bicarbonate, 1 mM sodium pyruvate, 20 mM HEPES, 10% FBS, 100 units/ml penicillin, 100 μg/ml streptomycin, and a modification of Brewers B16 defined components (with […] vitamin B12 and without catalase, glutathione, and superoxide dismutase) (Pike, C. J., et al., Neurosci. 13:1676-87 (1993)) and plated onto poly-L-lysine coated 24 well culture dishes (Nunclon) at a density of 15,000 cells/cm^2 and were maintained in a humidified incubator in 5% CO2 /95% air at 37° C. After 5 days in vitro, nonneuronal cell division was inhibited by exposure to 2×10^-6 M cytosine arabinoside for 48 hrs. Cells were subsequently maintained in medium identical to that used for platting without BSA or FBS.
The number of living neurons was determined by assessing the ability of cells to exclude trypan blue 16 hrs. after the addition of drug solutions to the medium of individual culture wells (Dawson, V. L., et al., Proc. Natl. Acad. Sci. USA, 88:6368-6371 (1991)). Drugs were introduced to cultures in 100 μl of conditioned media, collected from experimental cultures just prior to treatment, to a final volume of 0.5 ml. NMDA was dissolved in DMEM at concentrations of 0-5 mM so that addition of 10 μl yielded final concentrations of 0-100 μM. MK-801, a positive control, was dissolved in DMEM at a concentration of 1 mM so that addition of 5 μl yielded a final concentration of 10 μM. Control cultures were exposed only to an equivalent volume of DMEM, and concentration of DMSO (0.5%). The concentrations of the pregnenolone sulfate derivatives were as follows: 10-100 μM 5β3αS, 100 μM 5β3α hemisuccinate and 200 μM 17β-estradiol hemisuccinate.
After exposure to drugs, the medium was replaced by 0.1 M sodium phosphate buffer/0.4% trypan blue. Cell death was assessed by counting the number of trypan blue positive and negative neurons in five high power fields per culture well with an inverted phase contrast microscope using both bright field and phase settings. Cell death is expressed as the ratio of the number of trypan blue positive to total number of cells counted in each well×100 (percent cell death).

[4] = biological target: T1, recombinant NMDA receptors (NR1100 and NR2A subunits) (Rattus norvegicus, UniProt P35439+Q00959); experiment: Two electrode voltage-clamp of Xenopus oocytes expressing recombinant NMDA receptors
T1 construct: expressed in transfected cells; host or cells: Xenopus laevis oocytes injected with in vitro transcribed mRNA
Method: RNA preparation. mRNA were prepared through in vitro transcription of NR1100 and NR2A cDNAs using the mMessage mMachine kit (Ambion, Tex.). NR1100 and NR2A clones were kindly provided by Dr. Zukin and Dr. Nakanishie.
Xenopus expression system. Female, oocyte positive Xenopus laevis frogs were purchased from Nasco, Inc. (WI). The frogs were kept on a 12/12 light-dark cycle and maintained on a diet of chopped calf liver every 3 days. Prior to surgery, frogs were anesthetized in a 0.15% Tricaine solution (Sigma, Mo.) for 30-45 minutes. Ovarian sections containing the follicular oocytes were removed through a lateral abdominal incision and were immediately placed in calcium-free ND96 solution (in mM):96 NaCl; 1 MgCl2; 2 KCl; 5 Hepes; 2.5 pyruvate (pH adjusted to 7.4 with NaOH). Following a 2 hr. incubation in 0.2% collagenase type II (Sigma, Mo.) at room temperature, individual defolliculated oocytes were transferred into 60×15 mm glass petri dishes containing ND96 solution (in mM): 96 NaCl; 1 MgCl2; 2 KCl; 1.8 CaCl2; 5 Hepes; 2.5 pyruvate (pH adjusted to 7.4 with NaOH). The isolated oocytes were maintained in an incubator at 18° C. On the following date, batches of 20-40 selected oocytes (Dumont stage V and VI) were injected with 50 nl of prepared RNA solution (0.5 ng of NR1 and 12 ng of NR2A mRNAs per oocyte) using an electronic microinjector (Drummond, Pa.). The injected oocytes were used for electrophysiological experiments following 4-10 day incubation at 18° C.
Electrical recording and drug application. The ion current recordings were obtained in two electrodes voltage-clamp mode using an Axoclamp-2A amplifier (Axon Instruments, Inc., CA). The microelectrodes were fabricated with a programmed puller (Sutter Instrument Co., CA) from glass capillaries (Dagan, Minn.) and filled with 3M KCl solution. The resistance of filled microelectrodes was in the range of 2.5-3.5 M.OMEGA.. The oocytes were clamped at a holding potential of -70 mV. The membrane current was filtered at 500 Hz and sampled at 100 Hz frequency. The drugs were applied using a gravity driven external perfusion system. The data acquisition and external perfusion control were done using SuperScopeII software package (GW Instruments, MA). All experiments were performed at room temperature of 22-24° C.
The degree of modulation of the amino acid response by steroids, the percent change, was defined at (I'/I-1)×100%, where I and I' are respectively the agonist-induced currents in the absence and presence of steroid. Throughout, results are expressed as mean±SEM; statistical comparison of groups was carried out using Student's t test.

T1 sequence (Q00959 23-1464, other chains not shown): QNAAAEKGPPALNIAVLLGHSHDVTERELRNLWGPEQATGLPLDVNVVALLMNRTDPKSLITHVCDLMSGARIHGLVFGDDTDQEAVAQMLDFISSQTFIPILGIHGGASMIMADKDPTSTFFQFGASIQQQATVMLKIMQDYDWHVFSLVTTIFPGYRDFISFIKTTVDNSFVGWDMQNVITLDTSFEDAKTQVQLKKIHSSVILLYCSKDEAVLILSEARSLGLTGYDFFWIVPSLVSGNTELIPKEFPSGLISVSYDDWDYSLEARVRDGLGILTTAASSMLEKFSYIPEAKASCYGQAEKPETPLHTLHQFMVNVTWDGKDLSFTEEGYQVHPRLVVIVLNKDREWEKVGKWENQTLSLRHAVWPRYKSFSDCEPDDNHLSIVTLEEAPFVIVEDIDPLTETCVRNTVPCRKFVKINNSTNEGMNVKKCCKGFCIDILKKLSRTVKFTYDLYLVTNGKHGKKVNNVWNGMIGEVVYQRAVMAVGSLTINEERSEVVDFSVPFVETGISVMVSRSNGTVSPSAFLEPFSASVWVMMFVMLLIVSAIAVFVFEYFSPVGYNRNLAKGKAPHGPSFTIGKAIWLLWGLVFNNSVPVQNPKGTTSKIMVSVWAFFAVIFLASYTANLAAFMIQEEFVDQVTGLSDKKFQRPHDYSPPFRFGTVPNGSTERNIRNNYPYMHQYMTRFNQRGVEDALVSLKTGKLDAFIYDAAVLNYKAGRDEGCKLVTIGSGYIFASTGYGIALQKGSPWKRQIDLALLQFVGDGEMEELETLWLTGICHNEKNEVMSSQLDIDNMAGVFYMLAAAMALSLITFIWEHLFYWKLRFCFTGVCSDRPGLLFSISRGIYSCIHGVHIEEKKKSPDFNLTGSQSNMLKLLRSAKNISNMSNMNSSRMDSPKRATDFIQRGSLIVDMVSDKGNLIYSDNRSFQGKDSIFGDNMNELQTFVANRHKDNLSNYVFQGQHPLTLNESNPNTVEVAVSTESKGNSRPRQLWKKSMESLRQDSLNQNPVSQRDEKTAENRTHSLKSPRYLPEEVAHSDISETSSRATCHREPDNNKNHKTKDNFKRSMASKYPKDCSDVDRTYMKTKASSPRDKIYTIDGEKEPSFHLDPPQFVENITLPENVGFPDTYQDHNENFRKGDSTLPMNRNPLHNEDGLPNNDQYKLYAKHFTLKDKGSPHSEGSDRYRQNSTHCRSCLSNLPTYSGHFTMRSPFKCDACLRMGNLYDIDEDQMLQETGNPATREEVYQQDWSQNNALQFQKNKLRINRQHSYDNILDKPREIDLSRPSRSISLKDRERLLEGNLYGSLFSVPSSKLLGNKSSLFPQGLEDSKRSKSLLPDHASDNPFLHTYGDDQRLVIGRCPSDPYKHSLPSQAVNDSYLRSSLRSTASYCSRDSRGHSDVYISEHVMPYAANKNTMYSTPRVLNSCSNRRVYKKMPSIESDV

## O[C@H](CS)[C@H](O)CS (racemic) [DTT, dithiothreitol, reference compound]
[1]; 4 mM DTT, after 180 seconds of exposure
  NMDA current, % of control: 273±19%
[1]; after approximately an hour of exposure to 4 mM DTT
  mean NMDA induced current: 326±82 pA

## CC(=O)[C@H]1CC[C@H]2[C@@H]3CC[C@H]4C[C@@H](OS(=O)(=O)O)CC[C@]4(C)[C@H]3CC[C@]12C [5α3βS, 5α-pregnan-3β-ol-20-one sulfate, reference compound]
[1]; steroid concentration not given
  inhibition of the NMDA-induced current: 1±2.6%

## CC(=O)[C@H]1CC[C@H]2[C@@H]3CC=C4C[C@@H](OS(=O)(=O)O)CC[C@]4(C)[C@H]3C(=O)C[C@]12C [11-keto PS]
[2]; Rattus norvegicus, Hippocampal neuron, 100 μM steroid, read-out: percentage potentiation of EPSCs
  activation at 100 µM: 19 ± 15%
[2]; cultures of rat hippocampal neurons
  effect on spontaneous EPSCs: has no effect on EPSCs

## C[C@]12CC[C@@H]3c4ccc(OC(=O)CCC(=O)O)cc4CC[C@H]3[C@@H]1CC[C@@H]2O [17β-estradiol hemisuccinate]
[3]; read-out: inhibition of the cell death induced by chronic NMDA
  inhibition at 200 µM: 40%
[3]; read-out: inhibition of the cell death produced by short term exposure to NMDA
  inhibition at 200 µM: 65%

## C[C@]12CC[C@H](OS(=O)(=O)O)CC1=CC[C@@H]1[C@@H]2CC[C@]2(C)C(=O)CC[C@@H]12 [DHEAS, Dehydroepiandrosterone sulfate, reference compound]
[1]; concentration not in the sentence (100 μM in Table 1)
  potentiation of the NMDA response: 28.8±8.8% and 28.8%

## CCN1C(=O)C=CC1=O [NEM, N-ethylmaleimide, reference compound]
[1]; 5 min 4 mM DTT, then 2 min 4 mM DTT plus 300 μM NEM
  mean NMDA induced current: 367±82 pA

## CN[C@H](CC(=O)O)C(=O)O [NMDA, N-methyl-D-aspartate]
[1]; in the absence of 5β3αS
  NMDA nH: 1.01
[1]; in the absence of 5β3αS, normalized to the peak current induced by 100 μM NMDA
  NMDA Imax: 2.56
[1]; read-out: NMDA EC50, in the absence of 5β3αS
  EC50: 156 µM
[4]
  EC50: 62 ± 4 µM

## CCCCC/C=C\C/C=C\C/C=C\C/C=C\CCCC(=O)O [arachidonic acid, reference compound]
[1]; 10 μM arachidonic acid alone
  potentiation of the 30 μM NMDA response: 120±35%
[1]; 10 μM arachidonic acid in the presence of 100 μM PS
  potentiation of the NMDA response: 158±22%

## NCCCNCCCCNCCCN [spermine, reference compound]
[1]; 100 μM spermine (maximal)
  potentiation of the NMDA induced current: 136±33%
[1]; 250 μM spermine
  potentiation of the NMDA induced current: 67±21%
